Test results reported in ChEMBL document CHEMBL5724914, “Linking interpersonal differences in gut microbiota composition and drug biotransformation activity” (2024).

What was measured:
[1] = human gut metagenome, 24 h, 2 µM
[2] = human gut metagenome, 24 h, 2 µM; remark: listed apart in the source
[3] = (§1) The drug is tested on Z-013 corresponding to rabbit gut metagenome with ENA study accession number: PRJEB37062 and ENA sample accession number: ERS12561813 for biotransformation under anaerobic condition. The drug concentrations were measured over 9 timepoints collected between 0 and 24 hours of incubation by liquid-chromatography-coupled mass spectrometry (LC–MS); details: 2 µM
[4] = as §1, with “Z-007” for “Z-013”, “rat” for “rabbit”, “ERS12561807” for “ERS12561813”; details: 2 µM
[5] = as §1, with “WLS-073” for “Z-013”, “human” for “rabbit”, “ERS12561749” for “ERS12561813”; details: 2 µM
[6] = as §1, with “WLS-027” for “Z-013”, “human” for “rabbit”, “ERS12561744” for “ERS12561813”; details: 2 µM
[7] = as §1, with “Z-022” for “Z-013”, “mouse” for “rabbit”, “ERS12561821” for “ERS12561813”; details: 2 µM
[8] = human gut metagenome, 24 h, 2 µM; remark: listed apart in the source
[9] = human gut metagenome, 24 h, 2 µM; remark: listed apart in the source
[10] = human gut metagenome, 24 h, 2 µM; remark: listed apart in the source
[11] = as §1, with “Z-021” for “Z-013”, “to” for “to rabbit gut”, “ERS12561820” for “ERS12561813”; details: 2 µM
[12] = human gut metagenome, 24 h, 2 µM; remark: listed apart in the source
[13] = as §1, with “WLS-052” for “Z-013”, “human” for “rabbit”, “ERS12561747” for “ERS12561813”; details: 2 µM
[14] = as §1, with “WLS-350” for “Z-013”, “human” for “rabbit”, “ERS12561789” for “ERS12561813”; details: 2 µM
[15] = as §1, with “WLS-370” for “Z-013”, “human” for “rabbit”, “ERS12561793” for “ERS12561813”; details: 2 µM
[16] = human gut metagenome, 24 h, 2 µM; remark: listed apart in the source
[17] = human gut metagenome, 24 h, 2 µM; remark: listed apart in the source
[18] = human gut metagenome, 24 h, 2 µM; remark: listed apart in the source
[19] = human gut metagenome, 24 h, 2 µM; remark: listed apart in the source
[20] = as §1, with “Z-006” for “Z-013”, “mouse” for “rabbit”, “ERS12561806” for “ERS12561813”; details: 2 µM
Also: call rule not given here.

Compound	Bacterial Biotransformation [1]	Bacterial Biotransformation [2]	Bacterial Biotransformation [3]	Bacterial Biotransformation [4]	Bacterial Biotransformation [5]	Bacterial Biotransformation [6]	Bacterial Biotransformation [7]	Bacterial Biotransformation [8]	Bacterial Biotransformation [9]	Bacterial Biotransformation [10]	Bacterial Biotransformation [11]	Bacterial Biotransformation [12]	Bacterial Biotransformation [13]	Bacterial Biotransformation [14]	Bacterial Biotransformation [15]	Bacterial Biotransformation [16]	Bacterial Biotransformation [17]	Bacterial Biotransformation [18]	Bacterial Biotransformation [19]	Bacterial Biotransformation [20]
CC[C@H](C)C(=O)O[C@H]1CCC=C2C=C[C@H](C)[C@H](CC[C@@H]3C[C@@H](O)CC(=O)O3)[C@H]21 [MEVASTATIN]	Compound NOT metabolized	Compound metabolized	Compound NOT metabolized	Compound NOT metabolized	Compound NOT metabolized	Compound metabolized	Compound metabolized	Compound NOT metabolized	Compound metabolized	Compound metabolized	Compound NOT metabolized	Compound metabolized	Compound metabolized	Compound NOT metabolized	Compound NOT metabolized	Compound metabolized	Compound metabolized	Compound metabolized	Compound NOT metabolized	Compound NOT metabolized
CN1[C@@H]2CC[C@H]1C[C@@H](OC(=O)c1c[nH]c3ccccc13)C2 [TROPISETRON]	Compound NOT metabolized	Compound NOT metabolized	Compound NOT metabolized	Compound NOT metabolized	Compound NOT metabolized	Compound NOT metabolized	Compound NOT metabolized	Compound NOT metabolized	Compound NOT metabolized	Compound NOT metabolized	Compound NOT metabolized	Compound NOT metabolized	Compound NOT metabolized	Compound NOT metabolized	Compound NOT metabolized	Compound NOT metabolized	Compound NOT metabolized	Compound NOT metabolized	Compound NOT metabolized	Compound NOT metabolized
C[C@]12CCC(=O)C=C1[C@@H]1C[C@@H]1[C@H]1[C@@H]3[C@@H]4C[C@@H]4[C@@]4(CCC(=O)O4)[C@@]3(C)CC[C@@H]12 [DROSPIRENONE]	Compound NOT metabolized	Compound metabolized	Compound metabolized	Compound NOT metabolized	Compound metabolized	Compound metabolized	Compound NOT metabolized	Compound NOT metabolized	Compound metabolized	Compound metabolized	Compound metabolized	Compound metabolized	Compound metabolized	Compound NOT metabolized	Compound metabolized	Compound metabolized	Compound NOT metabolized	Compound metabolized	Compound NOT metabolized	Compound metabolized
CC(C)c1nc(N(C)S(C)(=O)=O)nc(-c2ccc(F)cc2)c1/C=C/[C@@H](O)C[C@@H](O)CC(=O)[O-].CC(C)c1nc(N(C)S(C)(=O)=O)nc(-c2ccc(F)cc2)c1/C=C/[C@@H](O)C[C@@H](O)CC(=O)[O-].[Ca+2] [ROSUVASTATIN CALCIUM]	Compound NOT metabolized	Compound metabolized	Compound NOT metabolized	Compound NOT metabolized	Compound NOT metabolized	Compound metabolized	Compound NOT metabolized	Compound metabolized	Compound metabolized	Compound metabolized	Compound NOT metabolized	Compound metabolized	Compound metabolized	Compound metabolized	Compound metabolized	Compound NOT metabolized	Compound NOT metabolized	Compound NOT metabolized	Compound NOT metabolized	Compound NOT metabolized
CC(C)NCC(O)COc1ccc(CC(N)=O)cc1 (stereo not given) [ATENOLOL]	Compound NOT metabolized	Compound NOT metabolized	Compound NOT metabolized	Compound NOT metabolized	Compound NOT metabolized	Compound NOT metabolized	Compound NOT metabolized	Compound NOT metabolized	Compound NOT metabolized	Compound NOT metabolized	Compound NOT metabolized	Compound metabolized	Compound NOT metabolized	Compound NOT metabolized	Compound NOT metabolized	Compound NOT metabolized	Compound NOT metabolized	Compound metabolized	Compound NOT metabolized	Compound NOT metabolized
COc1ccc2cc([C@H](C)C(=O)O)ccc2c1 [NAPROXEN]	Compound NOT metabolized	Compound metabolized	Compound NOT metabolized	Compound NOT metabolized	Compound NOT metabolized	Compound metabolized	Compound NOT metabolized	Compound NOT metabolized	Compound NOT metabolized	Compound metabolized	Compound NOT metabolized	Compound metabolized	Compound metabolized	Compound metabolized	Compound NOT metabolized	Compound NOT metabolized	Compound metabolized	Compound metabolized	Compound NOT metabolized	Compound NOT metabolized
CCOC(=O)[C@H](CCc1ccccc1)N[C@@H](C)C(=O)N1Cc2ccccc2C[C@H]1C(=O)O	Compound metabolized	Compound metabolized	Compound NOT metabolized	Compound NOT metabolized	Compound metabolized	Compound metabolized	Compound NOT metabolized	Compound NOT metabolized	Compound metabolized	Compound metabolized	Compound NOT metabolized	Compound metabolized	Compound metabolized	Compound NOT metabolized	Compound metabolized	Compound metabolized	Compound metabolized	Compound metabolized	Compound NOT metabolized	Compound NOT metabolized
